Laboratory results as given in publication PMC8468039, “Development of New Meridianin/Leucettine-Derived Hybrid Small Molecules as Nanomolar Multi-Kinase Inhibitors with Antitumor Activity” (Biomedicines, 2021).

Experiments:
Assay in all cases: In vitro kinase inhibition assay (HotSpot, Reaction Biology)
Assay type in all cases: biochemical
JAK3 = biological target: T1, JAK3 (Homo sapiens, UniProt P52333); settings: single dose of 10 µM; read-out: Percent Inhibition, JAK3
T1 construct: purchased Reaction Biology Corp
T1 sequence (P52333 whole entry): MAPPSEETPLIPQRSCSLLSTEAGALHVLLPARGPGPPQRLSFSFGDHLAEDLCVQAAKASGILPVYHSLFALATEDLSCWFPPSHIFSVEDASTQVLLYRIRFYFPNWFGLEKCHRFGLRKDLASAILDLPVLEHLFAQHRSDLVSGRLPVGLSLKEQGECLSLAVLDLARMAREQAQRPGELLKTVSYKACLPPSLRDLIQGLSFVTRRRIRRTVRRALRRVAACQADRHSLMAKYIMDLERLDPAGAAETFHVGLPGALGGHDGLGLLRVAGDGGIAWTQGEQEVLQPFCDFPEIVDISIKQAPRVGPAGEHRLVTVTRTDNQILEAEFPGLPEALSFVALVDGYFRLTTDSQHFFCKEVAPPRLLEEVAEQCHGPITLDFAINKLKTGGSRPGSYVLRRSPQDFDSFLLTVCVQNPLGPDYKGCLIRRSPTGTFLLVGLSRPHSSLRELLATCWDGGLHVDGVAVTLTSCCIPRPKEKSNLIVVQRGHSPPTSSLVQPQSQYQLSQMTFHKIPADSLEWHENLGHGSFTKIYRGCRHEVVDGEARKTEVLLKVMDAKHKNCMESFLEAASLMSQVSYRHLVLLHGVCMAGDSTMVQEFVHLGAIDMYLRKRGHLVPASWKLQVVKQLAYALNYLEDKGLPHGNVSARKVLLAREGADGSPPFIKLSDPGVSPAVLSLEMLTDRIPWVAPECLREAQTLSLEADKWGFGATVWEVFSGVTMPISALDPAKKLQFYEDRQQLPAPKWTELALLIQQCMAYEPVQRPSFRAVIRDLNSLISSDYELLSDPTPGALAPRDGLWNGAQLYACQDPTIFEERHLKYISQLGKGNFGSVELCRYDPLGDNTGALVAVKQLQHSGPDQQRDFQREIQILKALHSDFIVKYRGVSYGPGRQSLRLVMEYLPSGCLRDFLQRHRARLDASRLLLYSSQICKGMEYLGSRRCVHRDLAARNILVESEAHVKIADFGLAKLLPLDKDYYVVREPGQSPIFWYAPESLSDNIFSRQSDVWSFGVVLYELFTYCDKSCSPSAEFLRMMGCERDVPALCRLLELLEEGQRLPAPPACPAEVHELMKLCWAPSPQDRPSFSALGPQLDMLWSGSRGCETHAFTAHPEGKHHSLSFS

FLT1/VEGFR1 = biological target: T2, FLT1/VEGFR1 (Homo sapiens, UniProt P17948); settings: single dose of 10 µM; 10 µM ATP as printed; read-out: Percent Inhibition, FLT1/VEGFR1
T2 construct: purchased Reaction Biology Corp
T2 sequence (P17948 27-1338): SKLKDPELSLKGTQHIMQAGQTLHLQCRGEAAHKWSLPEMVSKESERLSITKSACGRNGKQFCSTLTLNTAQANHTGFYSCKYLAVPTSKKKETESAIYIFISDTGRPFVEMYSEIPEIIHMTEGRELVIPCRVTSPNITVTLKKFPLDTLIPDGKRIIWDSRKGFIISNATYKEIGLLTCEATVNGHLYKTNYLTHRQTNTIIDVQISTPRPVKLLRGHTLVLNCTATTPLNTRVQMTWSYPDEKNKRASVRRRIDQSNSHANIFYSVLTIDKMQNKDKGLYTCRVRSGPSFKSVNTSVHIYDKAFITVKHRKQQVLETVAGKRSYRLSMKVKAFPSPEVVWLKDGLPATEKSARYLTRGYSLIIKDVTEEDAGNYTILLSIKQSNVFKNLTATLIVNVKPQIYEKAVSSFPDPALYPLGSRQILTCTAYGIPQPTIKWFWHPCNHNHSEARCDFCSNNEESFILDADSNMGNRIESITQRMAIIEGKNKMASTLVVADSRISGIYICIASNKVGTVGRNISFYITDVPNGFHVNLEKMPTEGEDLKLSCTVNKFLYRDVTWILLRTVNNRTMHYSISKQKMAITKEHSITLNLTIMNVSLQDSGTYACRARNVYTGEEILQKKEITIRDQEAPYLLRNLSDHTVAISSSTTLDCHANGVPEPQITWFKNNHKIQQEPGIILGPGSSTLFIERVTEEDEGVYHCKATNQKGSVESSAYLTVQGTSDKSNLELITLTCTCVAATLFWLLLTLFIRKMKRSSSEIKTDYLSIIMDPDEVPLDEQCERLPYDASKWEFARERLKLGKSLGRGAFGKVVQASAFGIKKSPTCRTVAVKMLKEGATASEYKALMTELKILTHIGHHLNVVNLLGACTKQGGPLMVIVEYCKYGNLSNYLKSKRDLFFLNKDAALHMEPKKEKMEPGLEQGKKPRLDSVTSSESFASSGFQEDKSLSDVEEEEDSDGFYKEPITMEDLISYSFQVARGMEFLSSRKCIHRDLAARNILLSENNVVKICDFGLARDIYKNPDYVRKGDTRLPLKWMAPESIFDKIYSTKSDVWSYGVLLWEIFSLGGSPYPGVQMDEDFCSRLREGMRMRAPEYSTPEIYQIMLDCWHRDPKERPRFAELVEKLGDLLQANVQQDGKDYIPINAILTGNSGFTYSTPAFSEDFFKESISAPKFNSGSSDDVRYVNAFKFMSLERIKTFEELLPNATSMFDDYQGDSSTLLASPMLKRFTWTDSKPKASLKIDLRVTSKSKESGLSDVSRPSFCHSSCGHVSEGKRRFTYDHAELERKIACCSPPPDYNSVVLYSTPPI

c-MET = biological target: T3, c-MET (Homo sapiens, UniProt P08581); settings: single dose of 10 µM; 10 µM ATP as printed; read-out: Percent Inhibition, c-MET
T3 construct: purchased Reaction Biology Corp
T3 sequence (P08581 25-1390): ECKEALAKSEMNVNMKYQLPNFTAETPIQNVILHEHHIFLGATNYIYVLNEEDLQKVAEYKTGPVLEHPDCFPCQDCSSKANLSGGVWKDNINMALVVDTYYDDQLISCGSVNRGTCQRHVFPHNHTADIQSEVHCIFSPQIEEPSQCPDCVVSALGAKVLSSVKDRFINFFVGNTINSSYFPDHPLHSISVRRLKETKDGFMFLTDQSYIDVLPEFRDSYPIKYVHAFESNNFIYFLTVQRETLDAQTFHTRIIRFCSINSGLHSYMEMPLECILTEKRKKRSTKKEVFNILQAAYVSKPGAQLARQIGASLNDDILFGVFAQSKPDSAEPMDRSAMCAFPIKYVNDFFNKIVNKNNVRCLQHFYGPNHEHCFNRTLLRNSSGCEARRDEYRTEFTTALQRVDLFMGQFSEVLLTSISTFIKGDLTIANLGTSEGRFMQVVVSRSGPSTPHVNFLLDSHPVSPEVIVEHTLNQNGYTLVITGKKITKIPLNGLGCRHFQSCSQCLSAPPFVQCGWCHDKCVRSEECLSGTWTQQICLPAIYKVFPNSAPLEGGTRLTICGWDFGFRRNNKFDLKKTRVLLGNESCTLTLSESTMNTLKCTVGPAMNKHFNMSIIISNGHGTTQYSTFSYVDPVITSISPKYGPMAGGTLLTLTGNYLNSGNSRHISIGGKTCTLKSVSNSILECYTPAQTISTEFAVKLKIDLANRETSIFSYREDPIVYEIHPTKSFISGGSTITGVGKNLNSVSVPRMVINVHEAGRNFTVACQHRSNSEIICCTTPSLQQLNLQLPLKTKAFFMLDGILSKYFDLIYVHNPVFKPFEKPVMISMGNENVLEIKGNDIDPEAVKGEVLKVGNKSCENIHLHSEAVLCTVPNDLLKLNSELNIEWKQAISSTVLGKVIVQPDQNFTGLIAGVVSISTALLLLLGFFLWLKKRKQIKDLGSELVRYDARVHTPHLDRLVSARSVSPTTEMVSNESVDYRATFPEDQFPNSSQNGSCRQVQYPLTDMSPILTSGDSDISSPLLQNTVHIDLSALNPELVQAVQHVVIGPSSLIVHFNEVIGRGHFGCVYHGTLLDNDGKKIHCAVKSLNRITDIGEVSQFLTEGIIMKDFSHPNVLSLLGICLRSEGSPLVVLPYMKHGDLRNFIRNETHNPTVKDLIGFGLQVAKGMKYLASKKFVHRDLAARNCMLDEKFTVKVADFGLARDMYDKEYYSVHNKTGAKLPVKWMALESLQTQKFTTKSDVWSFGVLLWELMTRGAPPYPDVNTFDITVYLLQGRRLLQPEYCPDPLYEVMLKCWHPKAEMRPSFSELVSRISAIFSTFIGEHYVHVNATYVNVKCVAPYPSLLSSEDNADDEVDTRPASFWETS

PAK1 = biological target: T4, PAK1 (Homo sapiens, UniProt Q13153); settings: single dose of 10 µM; read-out: Percent Inhibition, PAK1
T4 construct: purchased Reaction Biology Corp
T4 sequence (Q13153 whole entry): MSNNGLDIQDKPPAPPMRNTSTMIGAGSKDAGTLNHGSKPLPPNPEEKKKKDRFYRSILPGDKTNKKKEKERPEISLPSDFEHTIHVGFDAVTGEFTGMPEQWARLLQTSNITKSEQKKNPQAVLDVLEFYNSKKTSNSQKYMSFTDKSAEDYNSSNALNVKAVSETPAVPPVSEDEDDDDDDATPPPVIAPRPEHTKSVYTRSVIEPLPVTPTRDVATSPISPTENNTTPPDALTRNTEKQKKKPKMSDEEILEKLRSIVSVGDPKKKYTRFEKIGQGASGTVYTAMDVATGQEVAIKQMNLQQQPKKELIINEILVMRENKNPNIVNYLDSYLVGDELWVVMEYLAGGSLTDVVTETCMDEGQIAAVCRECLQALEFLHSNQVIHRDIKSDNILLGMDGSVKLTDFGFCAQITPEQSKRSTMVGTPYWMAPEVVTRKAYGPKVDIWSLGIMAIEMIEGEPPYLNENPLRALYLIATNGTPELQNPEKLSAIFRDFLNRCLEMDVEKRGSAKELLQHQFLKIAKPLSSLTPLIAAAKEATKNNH

For `COc1ccc(Oc2nc(Nc3ccc(N4CCOCC4)cc3)ncc2NC(=O)c2ccc3c(c2)OCO3)cc1` [5a, N-(4-(4-Methoxyphenoxy)-2-((4-morpholinophenyl)amino)pyrimidin-5-yl)benzo[d][1,3]dioxole-5-carboxamide], the inhibition at 10 µM (JAK3) was 11.2 ± 1.2%, the inhibition at 10 µM (FLT1/VEGFR1) was -2.4 ± 1.7% and the inhibition at 10 µM (c-MET) was 12 ± 13.7%. For the same compound, the inhibition at 10 µM (PAK1) was -29.1 ± 3.4%.
